Measured values from ChEMBL document CHEMBL1155692, “An unusual nitrogenous terphenyl derivative from fruiting bodies of the basidiomycete Sarcodon leucopus” (2000).
In brackets after ≈: the same amount, converted by molar mass.

What was measured:
P388 = assay: Cytotoxicity against mouse P388 cells; type: functional; settings: read-out: ED50 (the source's name)
KB = assay: Cytotoxicity against human KB cells; type: functional; settings: read-out: ED50 (the source's name)

SMILES: CC[C@@H](C)[C@]12Oc3cc(-c4c(O)c(O)c(-c5ccc(OC(C)=O)cc5)c(OC(C)=O)c4OC(C)=O)ccc3O[N+]1([O-])C(O)=C([C@@H](C)CC)N(O)C2=O (some centres not stated) [SARCODONIN]
- EC50 (P388): 27 µg/mL (≈ 37.4 µM)
- EC50 (KB): 10 µg/mL (≈ 13.8 µM)
